Data as given in patent publication US20200069691A1, “HETEROCYCLIC COMPOUNDS AS HIV PROTEASE INHIBITORS” (Merck Sharp & Dohme Corp., priority 2016, published 2020).

Biological target: T1, wild-type HIV-1 protease (Human immunodeficiency virus type 1 group M subtype B, UniProt P04585)
T1 construct: Escherichia coli expressed wild-type HIV-1 protease protein
Assay: Assay for Inhibition of Microbial Expressed HIV Protease (peptide substrate cleavage, LC-MS/MS readout)
Format: biochemical
Conditions: E. coli expressed wild-type HIV-1 protease, mean of at least two independent experiments, read-out: HIV Pr Enzyme HIV1 PR IC50
Procedure, shortened: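 E. coli-expressed wild-type HIV-1 protease ([…]) was preincubated with inhibitor 30 min at room temperature in pH 5.5 acetate buffer (100 mM NaCl, 0.1% BSA). Then 400 μM octapeptide substrate was added and reacted 1 h at 30 °C; inhibition came from LC-MS/MS product peak areas, mean of ≥2 experiments.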

SMILES | IC50
CN1CCN(c2cncc(-c3ncc4c(n3)CN(C(=O)c3cc(CN5C(=N)N[C@](CCCC(F)(F)F)(c6ccc(F)cc6)C5=O)ccc3C(F)(F)F)C4)c2)CC1 [Compound 25, (5R)-5-(4-fluorophenyl)-2-imino-3-[3-({2-[5-(4-methylpiperazin-1-yl)pyridin-3-yl]-5,7-dihydro-6H-pyirolo[3,4-d]pyrimidin-6-yl}carbonyl)-4-(trifluoromethyl)benzyl]-5-(4,4,4-trifluorobutyl)imidazolidin-4-one] | 2.59 nM
CC(C)C[C@]1(c2ccccc2)NC(=N)N([C@H](C)c2cccc(C(=O)N3Cc4nccnc4C3)c2)C1=O [Compound 237, 3-{(1R)-1-[3-(5,7-dihydro-6H-pyrrolo[3,4-b]pyrazin-6-ylcarbonyl)phenyl]ethyl}-2-imino-5-(2-methylpropvl)-5-phenylimidazolidin-4-one] | 14.5 nM
CCOC(=O)NC1CCN(C(=O)c2cc(F)cc(CN3C(=N)NC(c4ccccc4)(c4ccccc4)C3=O)c2)CC1 [Compound 344, ethyl [1-({3-fluoro-5-[(2-imino-5-oxo-4,4-diphenylimidazolidin-1-yl)methyl]phenyl}carbonyl)piperidin-4-yl]carbamate] | 81.4 nM
CC(C)C[C@]1(c2ccccc2)NC(=N)N([C@H](C)c2cccc(C(=O)N3Cc4cncnc4C3)c2)C1=O [Compound 261, 3-{(1R)-1-[3-(5,7-dihydro-6H-pyrrolo[3,4-d]pyrimidin-6-ylcarbonyl)phenyl]ethyl}-2-imino-5-(2-methylpropyl)-5-phenylimidazolidin-4-one] | 23.5 nM
CC(C)(C)NC(=O)c1nnc2n1CCN(C(=O)c1cccc(CN3C(=N)NC(c4ccccc4)(c4ccccc4)C3=O)c1)C2 [Compound 361, N-tert-butyl-7-({3-[(2-imino-5-oxo-4,4-diphenylimidazolidin-1-yl)methyl]phenyl}carbonyl)-5,6,7,8-tetrahydro[1,2,4]triazolo[4,3-a]pyrazine-3-carboxamide] | 96.1 nM
N#Cc1ncc2c(n1)CN(C(=O)c1cc(CN3C(=N)NC(c4ccccc4)(c4ccccc4)C3=O)ccc1Cl)C2 [Compound 367, 6-({2-chloro-5-[(2-imino-5-oxo-4,4-diphenylimidazolidin-1-yl)methyl]phenyl}carbonyl)-6,7-dihydro-5H-pyrrolo[3,4-d]pyrimidine-2-carbonitrile] | 5.13 nM
CC(C)CC(c1ccc(C(F)(F)F)c(C(=O)N2Cc3nccnc3C2)c1)N1C(=N)N[C@](CC2CC2)(c2ccccc2)CC1=O (stereo partly drawn) [Compound 77, (6S)-6-(cyclopropylmethyl)-3-{1-[3-(5,7-dihydro-6H-pyrrolo[3,4-b]pyrazin-6-ylcarbonyl)-4-(trifluoromethyl)phenyl]-3-methyl-butyl}-2-imino-6-phenyltetra-hydropyrimidin-4(1H)-one] | 10.5 nM
COC(=O)N1CCN(C(=O)c2cccc(CN3C(=N)NC(c4ccc(F)cc4)(c4cccc(Br)c4)C3=O)c2)CC1 (stereo not shown) [Compound 240, methyl 4-[(3-{[4-(3-bromophenyl)-4-(4-fluorophenyl)-2-imino-5-oxoimidazolidin-1-yl]methyl}phenyl)carbonyl] piperazine-1-carboxylate] | 15.2 nM
Cc1ncc2c(n1)CN(C(=O)c1cccc(CN3C(=N)NC(c4ccccc4)(c4ccccc4)C3=O)c1)C2 [Compound 290, 2-imino-3-{3-[(2-methyl-5,7-dihydro-6H-pyrrolo[3,4-d]pyrimidin-6-yl)carbonyl]benzyl}-5,5-diphenylimidazolidin-4-one] | 36.3 nM
CC(C)CC1(c2ccccc2)NC(=N)N(Cc2cccc(C(=O)N3Cc4cnc(C#N)nc4C3)c2)C1=O (stereo not shown) [Compound 222, 6-[(3-{[2-imino-4-(2-methylpropyl)-5-oxo-4-phenylimidazolidin-1-yl]methyl}phenyl)carbonyl]-6,7-dihydro-5H-pyrrolo[3,4-d]pyrimidine-2-carbonitrile] | 11.1 nM
